For 20 compounds, IC50 and Ki results are on record in patent publication US8163737B2 (Vertex Pharmaceuticals Incorporated, priority 2006, dated 2012).

In experiment [1] the target is endogenous CGRP receptor (Homo sapiens, UniProt O60894+Q16602). The experiment can be described thus: CGRP functional antagonism using SK-N-MC-BLA (4C10), β-lactamase transcriptional reporter assay. Conditions: SK-N-MC (4C10) cells, inhibition of β-lactamase expression in the presence of 200 pM CGRP. The format is cell-based. On the technique in general: A reporter such as luciferase makes a cellular process visible.

Experiment [2] has as its target T1, CGRP receptor (SK-N-MC membrane) (Homo sapiens, UniProt O60894+Q16602).
T1 construct: Purified SK-N-MC membrane was purchased from Perkin Elmer; purchased Perkin Elmer; host or cells: SK-N-MC membrane
Briefly: I125-CGRP binding displacement assay on purified SK-N-MC membrane. In short, it runs like this:
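Human SK-N-MC membranes incubated with compounds and I125-CGRP for 2 h at room temperature in 25 mM Tris-HCl pH 7.4, 5 mM MgCl2, 0.1% BSA, 0.05% Tween, then filtered and counted. Nonspecific binding defined with 1 uM unlabelled CGRP; percent displacement fitted to curves.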

The structures appear in SMILES notation. Bounds are passed on as bounds.

As usually defined, the IC50 is the concentration needed to halve the response being measured. For orientation: Ki means the equilibrium dissociation constant of an inhibitor or competing ligand from its target.

T1 sequence (Q16602 23-461): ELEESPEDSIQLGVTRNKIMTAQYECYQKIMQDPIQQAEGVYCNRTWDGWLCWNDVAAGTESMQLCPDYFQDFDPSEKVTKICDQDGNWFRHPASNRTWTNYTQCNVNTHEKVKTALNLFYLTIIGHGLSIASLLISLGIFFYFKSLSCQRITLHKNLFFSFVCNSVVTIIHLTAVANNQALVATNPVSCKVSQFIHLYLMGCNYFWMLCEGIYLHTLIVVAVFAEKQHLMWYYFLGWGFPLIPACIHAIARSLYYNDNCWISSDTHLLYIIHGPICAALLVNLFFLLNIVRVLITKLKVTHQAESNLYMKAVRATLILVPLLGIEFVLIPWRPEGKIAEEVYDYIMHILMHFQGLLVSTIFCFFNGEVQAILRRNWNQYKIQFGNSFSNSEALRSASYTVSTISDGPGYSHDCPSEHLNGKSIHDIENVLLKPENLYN
T1 sequence (O60894 27-148): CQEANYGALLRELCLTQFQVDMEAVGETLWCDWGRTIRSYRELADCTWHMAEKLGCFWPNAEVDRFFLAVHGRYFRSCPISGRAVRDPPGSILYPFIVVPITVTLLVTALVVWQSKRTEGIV
Sequence of endogenous CGRP receptor (Q16602 23-461): as the sequence (Q16602 23-461) above
Sequence of endogenous CGRP receptor (O60894 27-148): as the sequence (O60894 27-148) above

Regarding `CC(C)CCN1C(=O)C(CC(=O)N2CCC(N3Cc4ccccc4NC3=O)CC2)SC1c1cccc(OC(F)(F)C(F)F)c1` (stereo not shown) [Compound 240], the half-maximal inhibitory concentration (IC50) in experiment [1] was in the range of 1000 to 5000 nM. Besides, the Ki in experiment [2] is < 1000 nM.
Regarding `CC(C)(C)CCN1C(=O)C(CC(=O)N2CCC(N3CCc4ccccc4NC3=O)CC2)SC1c1ccccc1F` (stereo not shown) [Compound 244], the IC50 in experiment [1] was < 1000 nM. Moreover, the inhibition constant Ki in experiment [2] was < 1000 nM.
As to `Cc1cc(C2SC(CC(=O)N3CCC(n4cc(-c5ccccc5)[nH]c4=O)CC3)C(=O)N2CCC(C)C)cc2cn[nH]c12` (stereo not shown) [Compound 248], in experiment [1], the IC50 was < 1000 nM. In experiment [2], the Ki is > 5000 nM.
For `CC(C)(C)N1C(=O)C(CC(=O)N2CCC(N3Cc4ccccc4NC3=O)CC2)SC1c1ccccc1` (stereo not shown) [Compound 251], in that order: > 5000 nM and 1000 to 5000 nM.
For `CC(C)N1C(=O)C(CC(=O)N2CCC(N3Cc4ccccc4NC3=O)CC2)SC1c1ccccc1` (stereo not shown) [Compound 255, 3,4-Dihydro-3-(1-(2-(3-isopropyl-4-oxo-2-phenylthiazolidin-5-yl)acetyl)piperidin-4-yl)quinazolin-2(1H)-one], in that order: 1000 to 5000 nM and < 1000 nM.
For `CC(C)CCN1C(=O)C(CC(=O)N2CCC(N3Cc4ccccc4NC3=O)CC2)SC1c1c(F)cccc1C(F)(F)F` (stereo not shown) [Compound 256], in that order: < 1000 nM and < 1000 nM.
On to `CC(C)CCN1C(=O)C(CC(=O)N2CCC(n3cc4ccccc4nc3=O)CC2)SC1c1ccccc1` (stereo not shown) [Compound 259], for which the half-inhibitory concentration (IC50) in experiment [1] was < 1000 nM. Moreover, in experiment [2], the inhibition constant (Ki) is < 1000 nM.
Take `CC(C)CCN1C(=O)C(CC(=O)N2CCC(N3CCc4ccccc4NC3=O)CC2)SC1c1ccccc1-n1ccnc1` (stereo not shown) [Compound 260]: the half-maximal inhibitory concentration (IC50) in experiment [1] was < 1000 nM. Also, in experiment [2], the inhibitory constant (Ki) was < 1000 nM.
`CN(C)c1ccccc1C1SC(CC(=O)N2CCC(N3CCc4ccccc4NC3=O)CC2)C(=O)N1CCC(C)(C)C` (stereo not shown) [Compound 263]: in experiment [1], the IC50 is < 1000 nM. Besides, in experiment [2], the Ki is < 1000 nM.
Take `O=C(CC1SC(c2ccccc2)N(CC2CCCCC2)C1=O)N1CCC(N2Cc3ccccc3NC2=O)CC1` (stereo not shown) [Compound 264]: the IC50 in experiment [1] is < 1000 nM. The Ki in experiment [2] is < 1000 nM.
As for `N#Cc1ccccc1C1SC(CC(=O)N2CCC(N3Cc4ccccc4NC3=O)CC2)C(=O)N1CC1CCCCC1` (stereo not shown) [Compound 265], in experiment [1], the half-inhibitory concentration (IC50) is < 1000 nM. In addition, in experiment [2], the inhibition constant Ki is < 1000 nM.
On to `CC(C)CCN1C(=O)C(CC(=O)N2CCC(N3Cc4ccccc4NC3=O)CC2)SC1c1ccccn1` (stereo not shown) [Compound 266], for which, in experiment [1], the IC50 is < 1000 nM. Besides, in experiment [2], the inhibition constant Ki is < 1000 nM.
Turning to `CC(C)CCN1C(=O)C(CC(=O)N2CCC(N3Cc4ccccc4NC3=O)CC2)SC1c1ccccc1Br` (stereo not shown) [Compound 268], the IC50 in experiment [1] is < 1000 nM. In addition, in experiment [2], the inhibition constant (Ki) is < 1000 nM.
As to `O=C(CC1SC(c2ccccc2)N(CC2CC2)C1=O)N1CCC(N2Cc3ccccc3NC2=O)CC1` (stereo not shown) [Compound 271], the IC50 in experiment [1] is < 1000 nM. Besides, the Ki in experiment [2] is < 1000 nM.
`O=C(CC1SC(c2ccccc2)N(Cc2cccnc2)C1=O)N1CCC(N2Cc3ccccc3NC2=O)CC1` (stereo not shown) [Compound 278]: in experiment [1], the IC50 was < 1000 nM. Further, in experiment [2], the Ki was < 1000 nM.
Consider `O=C(CC1SC(c2cccc(F)c2F)N(CC2CCCCC2)C1=O)N1CCC(N2CCc3ccccc3NC2=O)CC1` (stereo not shown) [Compound 279], for which the half-inhibitory concentration (IC50) in experiment [1] was < 1000 nM. In addition, in experiment [2], the Ki was < 1000 nM.
For the compound `Cc1cc(C2SC(CC(=O)N3CCC(N4Cc5ccccc5NC4=O)CC3)C(=O)N2CCC(C)C)cc2cn[nH]c12` (stereo not shown) [Compound 282], the IC50 in experiment [1] is < 1000 nM. For the same compound, the inhibition constant Ki in experiment [2] is < 1000 nM.
Turning to `COc1ccc(C2SC(CC(=O)N3CCC(N4Cc5ccccc5NC4=O)CC3)C(=O)N2CCC(C)C)c(F)c1` (stereo not shown) [Compound 283], the half-inhibitory concentration (IC50) in experiment [1] was in the range of 1000 to 5000 nM. Besides, the Ki in experiment [2] is < 1000 nM.
For `COc1ccc(C2SC(CC(=O)N3CCC(n4cc(-c5ccccc5)[nH]c4=O)CC3)C(=O)N2CCC(C)C)cc1` (stereo not shown) [Compound 286], in that order: 1000 to 5000 nM and > 5000 nM.
For `O=C(CC1SC(c2ccccc2)N(c2ccc3[nH]ncc3c2)C1=O)N1CCC(N2Cc3ccccc3NC2=O)CC1` (stereo not shown) [Compound 287], in that order: 1000 to 5000 nM and 1000 to 5000 nM.
